Results: patent US20260070922A1, “PYRAZOLE AND IMIDAZOLE DERIVATIVES AS DUAL OREXIN AND KAPPA-OPIOID RECEPTORS MODULATORS COMPOSITION, METHODS FOR TREATING NEUROLOGICAL AND PSYCHIATRIC DISORDERS” (HAGER BIOSCIENCES, LLC, priority 2022, published 2026)

Assays:
[1] = target: T1, Orexin type 1 (OX1R) receptor (Homo sapiens, UniProt O43613); assay: In vitro orexin antagonism assay: intracellular calcium measurement (FLIPR), orexin-A 3 nM as agonist; format: cell-based; details: for inhibition at 1 µM: read-out: OX1R, % Inh. @ 1 uM; for IC50: first value of IC50/Kb cell; for Kb: second value of IC50/Kb cell
T1 construct: expressed in transfected cells; host or cells: CHO cells (G418 selection)
T1 sequence (O43613 1-425): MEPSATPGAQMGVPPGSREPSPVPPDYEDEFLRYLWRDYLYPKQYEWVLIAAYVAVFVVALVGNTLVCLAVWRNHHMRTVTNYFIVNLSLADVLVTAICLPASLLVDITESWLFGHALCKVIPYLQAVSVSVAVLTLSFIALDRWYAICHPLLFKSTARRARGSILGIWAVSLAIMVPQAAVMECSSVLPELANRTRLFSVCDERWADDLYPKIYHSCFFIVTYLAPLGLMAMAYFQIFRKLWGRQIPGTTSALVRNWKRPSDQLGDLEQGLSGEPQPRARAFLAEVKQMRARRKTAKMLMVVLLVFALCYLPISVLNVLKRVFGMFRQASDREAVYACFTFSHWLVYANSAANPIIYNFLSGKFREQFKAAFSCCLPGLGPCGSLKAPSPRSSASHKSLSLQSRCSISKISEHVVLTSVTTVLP
Experimental: (§1) In Vitro Orexin Antagonism Measurement Assay: Intracellular Calcium Measurements:
(§2) Chinese hamster ovary (CHO) cells expressing the human […] and the human orexin-2 receptor, respectively, are grown in culture medium (Ham F-12 with L-Glutamine) containing 300 μg/mL G418, 100 U/mL penicillin, 100 μg/mL streptomycin and 10% heat inactivated fetal calf serum (FCS). The cells are seeded at 20,000 cells/well into 384-well black clear bottom sterile plates (Greiner). The seeded plates are incubated overnight at 37° C. in 5% 002. Human orexin-A as an agonist is prepared as 1 mM stock solution in MeOH: water (1:1), diluted in HBSS containing 0.1% bovine serum albumin (BSA), NaHCO3: 0.375 g/L and 20 mM HEPES for use in the assay at a final concentration of 3 nM.
(§3) Antagonists are prepared as 10 mM stock solution in DMSO, then diluted in 384-well plates using DMSO followed by a transfer of the dilutions into in HBSS containing 0.1% bovine serum albumin (BSA), NaHCO3: 0.375 g/L and 20 mM HEPES. On the day of the assay, 50 μL of staining buffer (HBSS containing 1% FCS, 20 mM HEPES, NaHCO3: 0.375 g/L, 5 mM probenecid (Sigma) and 3 μM of the fluorescent calcium indicator fluo-4 AM (1 mM stock solution in DMSO, containing 10% pluronic) is added to each well. The 384-well cell-plates are incubated for 50 min at 37° C. in 5% CO2 followed by equilibration at RT for 30 min before measurement.
(§4) Within the Fluorescent Imaging Plate Reader (FLIPR Tetra, Molecular Devices), antagonists are added to the plate in a volume of 10 μL/well, incubated for 120 min and finally 10 μL/well of agonist is added. Fluorescence is measured for each well at 1 second intervals, and the height of each fluorescence peak is compared to the height of the fluorescence peak induced by 3 nM orexin-A with vehicle in place of antagonist. The IC50 value (the concentration of compound needed to inhibit 50% of the agonistic response) is determined and may be normalized using the obtained IC50 value of an on-plate reference compound. Optimized conditions were achieved by adjustment of pipetting speed and cell splitting regime. The calculated IC50values may fluctuate depending on the daily cellular assay performance. Fluctuations of this kind are known to those skilled in the art.

[2] = target: T2, human orexin-2 receptor (OX2R) (Homo sapiens, UniProt O43614); assay: as above; format: cell-based; details: for inhibition at 1 µM: read-out: OX2R, % Inh. @ 1 uM; for IC50: first value of IC50/Kb cell; for Kb: second value of IC50/Kb cell
T2 construct: expressed in transfected cells; host or cells: CHO cells (G418 selection)
T2 sequence (O43614 1-444): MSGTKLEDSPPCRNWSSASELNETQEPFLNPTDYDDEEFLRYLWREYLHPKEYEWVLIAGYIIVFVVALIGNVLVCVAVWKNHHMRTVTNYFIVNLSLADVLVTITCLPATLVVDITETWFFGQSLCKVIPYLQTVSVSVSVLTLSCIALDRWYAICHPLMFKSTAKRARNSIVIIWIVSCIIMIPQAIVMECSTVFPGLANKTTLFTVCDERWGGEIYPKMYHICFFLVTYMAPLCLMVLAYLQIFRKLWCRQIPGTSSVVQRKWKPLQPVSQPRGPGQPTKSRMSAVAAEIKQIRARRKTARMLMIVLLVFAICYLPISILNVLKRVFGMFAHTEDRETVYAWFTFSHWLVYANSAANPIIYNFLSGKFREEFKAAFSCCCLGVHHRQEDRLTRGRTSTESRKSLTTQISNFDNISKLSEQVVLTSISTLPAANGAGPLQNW
Experimental: Antagonistic activities on both orexin receptors have been measured for each example compound using the following procedure:
as §1, §2, §3
as §4, with “art. In the case where IC50values have been determined several times for the same compound, the geometric mean has been given.” for “art.”

Structure (SMILES) | inhibition at 1 µM [1] [%] | inhibition at 1 µM [2] [%] | IC50 [2] [nM] | Kb [2] [nM] | IC50 [1] [nM] | Kb [1] [nM] | OX1R, % Inh. @ 1 uM ([1]; @ 1 uM) [%] | OX2R, % Inh. @ 1 uM ([2]; @ 1 uM) [%]
O=C(c1c(-c2ccccc2)nn2c1COCC2)N1CCC[C@H]1Cn1ccc(-c2ccccn2)n1 [Example 76] | 46 | 25 | – | – | – | – | – | –
O=C(c1c(-c2ccccc2)nn2c1COCC2)N1CCC[C@H]1Cn1cc(-c2ccccn2)cn1 [Example 77] | 22 | 23 | – | – | – | – | – | –
O=C(c1c(-c2ccccc2)nc2cc(C(F)(F)F)ccn12)N1CCC[C@H]1Cn1cc(-c2ccccn2)cn1 [Example 79] | 43 | 62 | 77 | 13 | – | – | – | –
O=C(c1c(-c2ccccc2)nc2cc(C(F)(F)F)ccn12)N1CCC[C@H]1Cn1cc(-c2ccc(F)cn2)cn1 [Example 81] | 58 | 63 | 70 | 12 | 400 | 84 | – | –
O=C(c1c(-c2ccccc2F)nn2c1COCC2)N1CCC[C@H]1Cn1cc(-c2ccc(F)cn2)cn1 [Example 83] | 17 | 39 | – | – | – | – | – | –
O=C(c1c(-c2ccccc2)nc2ccc(F)cn12)N1CCC[C@H]1Cn1cc(-c2ccc(F)cn2)cn1 [Example 84] | 32 | 58 | 400 | 70 | – | – | – | –
O=C(c1c(-c2ccccc2)nn2c1COCC2)N1CCC[C@H]1Cn1cc(-c2ccc(F)cn2)cn1 [Example 85] | 19 | 35 | – | – | – | – | – | –
O=C(c1c(-c2ccccc2)nn2c1COCC2)N1CCC[C@H]1Cn1cc(-c2ccccc2)cn1 [Example 86] | 56 | 42 | – | – | 1300 | 280 | – | –
O=C(c1c(-c2ccccc2F)nn2c1COCC2)N1CCC[C@H]1Cn1ccc(-c2ccc(F)cn2)n1 [Example 91] | 58 | 38 | – | – | 540 | 110 | – | –
O=C(c1c(-c2ccccc2)nn2c1COCC2)N1CCC[C@H]1Cn1ccc(-c2ccc(F)cn2)n1 [Example 93] | 41 | 36 | – | – | – | – | – | –
O=C(c1c(-c2ccccc2F)nn2c1COCC2)N1[C@H](Cn2ccc(-c3ccc(F)cc3)n2)C[C@@H]2C[C@@H]21 [Example 96] | 44 | 22 | – | – | – | – | – | –
O=C(c1c(-c2ccccc2)nc2cc(C(F)(F)F)ccn12)N1[C@H](Cn2ccc(-c3ccc(F)cc3)n2)C[C@@H]2C[C@@H]21 [Example 98] | 48 | 35 | – | – | – | – | – | –
O=C(c1c(-c2ccccc2F)nn2ccccc12)N1CC[C@H]1Cn1ccc(-c2ccc(F)cc2)n1 [Example 99] | 59 | 61 | 270 | 46 | 440 | 92 | – | –
O=C(c1c(-c2ccccc2F)nn2c1COCC2)N1CC[C@H]1Cn1ccc(-c2ccc(F)cc2)n1 [Example 100] | -2 | 19 | – | – | – | – | – | –
O=C(c1c(-c2ccccc2)nc2ccc(F)cn12)N1CC[C@H]1Cn1ccc(-c2ccc(F)cc2)n1 [Example 101] | 25 | 47 | – | – | – | – | – | –
O=C(c1c(-c2ccccc2)nc2cc(C(F)(F)F)ccn12)N1CC[C@H]1Cn1ccc(-c2ccc(F)cc2)n1 [Example 102] | 31 | 60 | 660 | 110 | – | – | – | –

Structure (SMILES) | inhibition at 1 µM [1] [%] | inhibition at 1 µM [2] [%] | IC50 [2] [nM] | Kb [2] [nM] | IC50 [1] [nM] | Kb [1] [nM] | OX1R, % Inh. @ 1 uM ([1]; @ 1 uM) [%] | OX2R, % Inh. @ 1 uM ([2]; @ 1 uM) [%]
O=C(c1c(-c2ccccc2F)nn2ccccc12)N1CC[C@H]1Cn1ccc(-c2ccc(F)cn2)n1 [Example 103] | 24 | 43 | – | – | – | – | – | –
O=C(c1c(-c2ccccc2F)nn2c1COCC2)N1CC[C@H]1Cn1ccc(-c2ccc(F)cn2)n1 [Example 104] | 8 | 14 | – | – | – | – | – | –
O=C(c1c(-c2ccccc2)nc2ccc(F)cn12)N1CC[C@H]1Cn1ccc(-c2ccc(F)cn2)n1 [Example 105] | 5 | 29 | – | – | – | – | – | –
O=C(c1c(-c2ccccc2)nc2cc(C(F)(F)F)ccn12)N1CC[C@H]1Cn1ccc(-c2ccc(F)cn2)n1 [Example 106] | 19 | 39 | – | – | – | – | – | –
O=C(c1c(-c2ccccc2F)nn2c1COCC2)N1[C@H](Cn2ccc(-c3ccc(F)cn3)n2)C[C@@H]2C[C@@H]21 [Example 108] | 23 | 17 | – | – | – | – | – | –
O=C(c1c(-c2ccccc2)nc2ccc(F)cn12)N1[C@H](Cn2ccc(-c3ccc(F)cn3)n2)C[C@@H]2C[C@@H]21 [Example 109] | 45 | 32 | – | – | – | – | – | –
O=C(c1c(-c2ccccc2)nc2cc(C(F)(F)F)ccn12)N1[C@H](Cn2ccc(-c3ccc(F)cn3)n2)C[C@@H]2C[C@@H]21 [Example 110] | 69 | 42 | – | – | 280 | 60 | – | –
O=C(c1c(-c2ccccc2)nn2c1COCC2)N1CCOC[C@H]1COc1ccc(C(F)(F)F)cn1 [Example 113] | 12 | 8 | – | – | – | – | – | –
O=C(c1c(-c2ccccc2)nn2ccccc12)N1CCOC[C@H]1COc1ccc(C(F)(F)F)cn1 [Example 114] | 14 | 6 | – | – | – | – | – | –
O=C(c1c(-c2ccccc2)nn2c1COCC2)N1CCC[C@H]1Cc1nc(-c2ccc(F)cn2)no1 [Example 116] | 10 | 19 | – | – | – | – | – | –
O=C(c1c(-c2ccccc2)nc2ccc(F)cn12)N1CCC[C@H]1Cc1nc(-c2ccc(F)cn2)no1 [Example 121] | 44 | 45 | – | – | – | – | – | –
O=C(c1nc2ccccn2c1-c1ccccc1)N1CCC[C@H]1Cn1ccc(-c2ccc(F)cn2)n1 [Example 123] | – | – | – | – | – | – | 100 | 42
O=C(c1nc2ccccn2c1-c1ccccc1)N1CCC[C@H]1COc1ccc(C(F)(F)F)cn1 [Example 124] | 100 | 36 | – | – | 5 | 1 | – | –
O=C(c1nn2c(c1-c1ccccc1)OCCC2)N1CCC[C@H]1COc1ccc(C(F)(F)F)cn1 [Example 142] | 100 | 42 | – | – | 6 | 1 | – | –
O=C(c1nn2c(c1-c1ccccc1)COCC2)N1C2CCC1(COc1ccc(C(F)(F)F)cn1)CC2 [Example 159] | 86 | 15 | – | – | 48 | 10 | – | –
O=C(c1nc2ccccn2c1-c1ccccc1)N1C2CCC1(COc1ccc(C(F)(F)F)cn1)CC2 [Example 160] | 98 | 2 | – | – | 24 | 5 | – | –
